Experimental data reported in ChEMBL document CHEMBL1151757, “Synthesis, radiosynthesis, and biological evaluation of fluorine-18-labeled 2beta-carbo(fluoroalkoxy)-3beta-(3'-((Z)-2-haloethenyl)phenyl)nortropanes: candidate radioligands for in vivo imaging of the serotonin transporter with positron emission tomography” (J Med Chem, 2008).

Experiments:
Putamen [1] = assay: Drug uptake in anesthetized cynomolgus monkey brain putamen after 6.5 mins postinjection; assay type: ADME, organism-based, Macaca fascicularis; parameters: unit not given here; conditions: in vivo
Pons [2] = assay: Drug uptake in anesthetized cynomolgus monkey brain pons after 95 mins postinjection; assay type: ADME, organism-based, Macaca fascicularis; conditions: in vivo
[3] = Ratio of drug uptake in medulla to cerebellum in anesthetized cynomolgus monkey after 0.5 mins postinjection; assay type: ADME, organism-based, Macaca fascicularis; conditions: in vivo
[4] = Ratio of drug uptake in midbrain to cerebellum in anesthetized cynomolgus monkey after 18.5 mins postinjection; assay type: ADME, organism-based, Macaca fascicularis; conditions: in vivo
Caudate [5] = assay: Drug uptake in anesthetized cynomolgus monkey brain caudate after 145 mins postinjection; assay type: ADME, organism-based, Macaca fascicularis, Caudate nucleus; conditions: in vivo
[6] = Ratio of drug uptake in caudate to cerebellum in anesthetized cynomolgus monkey after 9.5 mins postinjection; assay type: ADME, organism-based, Macaca fascicularis; conditions: in vivo
[7] = Drug uptake in anesthetized cynomolgus monkey brain frontal lobe after 125 mins postinjection; assay type: ADME, organism-based, Macaca fascicularis; conditions: in vivo
[8] = Drug uptake in anesthetized cynomolgus monkey brain cerebellum after 95 mins postinjection; assay type: ADME, organism-based, Macaca fascicularis; conditions: in vivo
Pons [9] = assay: Drug uptake in anesthetized cynomolgus monkey brain pons after 65 mins postinjection; assay type: ADME, organism-based, Macaca fascicularis; conditions: in vivo
Pons [10] = assay: Drug uptake in anesthetized cynomolgus monkey brain pons after 9.5 mins postinjection; assay type: ADME, organism-based, Macaca fascicularis; conditions: in vivo
[11] = Drug uptake in anesthetized cynomolgus monkey brain occipital lobe after 35 mins postinjection; assay type: ADME, organism-based, Macaca fascicularis; conditions: in vivo
Pons [12] = assay: Drug uptake in anesthetized cynomolgus monkey brain pons after 85 mins postinjection; assay type: ADME, organism-based, Macaca fascicularis; conditions: in vivo
Putamen [13] = assay: Drug uptake in anesthetized cynomolgus monkey brain putamen after 22.5 mins postinjection; assay type: ADME, organism-based, Macaca fascicularis; parameters: unit not given here; conditions: in vivo, 0.375 h
[14] = Drug uptake in anesthetized cynomolgus monkey brain frontal lobe after 135 mins postinjection; assay type: ADME, organism-based, Macaca fascicularis; conditions: in vivo, 2.25 h
[15] = Drug uptake in anesthetized cynomolgus monkey brain frontal lobe after 105 mins postinjection; assay type: ADME, organism-based, Macaca fascicularis; conditions: in vivo, 1.75 h
[16] = Ratio of drug uptake in thalamus to cerebellum in anesthetized cynomolgus monkey after 135 mins postinjection; assay type: ADME, organism-based, Macaca fascicularis; conditions: in vivo, 2.25 h
[17] = Drug uptake in anesthetized cynomolgus monkey brain occipital lobe after 125 mins postinjection; assay type: ADME, organism-based, Macaca fascicularis; conditions: in vivo
Pons [18] = assay: Drug uptake in anesthetized cynomolgus monkey brain pons after 145 mins postinjection; assay type: ADME, organism-based, Macaca fascicularis; conditions: in vivo
[19] = Ratio of drug uptake in midbrain to cerebellum in anesthetized cynomolgus monkey after 2.5 mins postinjection; assay type: ADME, organism-based, Macaca fascicularis; conditions: in vivo
Medulla [20] = assay: Drug uptake in anesthetized cynomolgus monkey brain medulla after 15.5 mins postinjection; assay type: ADME, organism-based, Macaca fascicularis; conditions: in vivo
Midbrain [21] = assay: Drug uptake in anesthetized cynomolgus monkey brain midbrain after 9.5 mins postinjection; assay type: ADME, organism-based, Macaca fascicularis; parameters: unit not given here; conditions: in vivo
[22] = Ratio of drug uptake in frontal lobe to cerebellum in anesthetized cynomolgus monkey after 195 mins postinjection; assay type: ADME, organism-based, Macaca fascicularis; conditions: in vivo, 3.25 h
[23] = Ratio of drug uptake in midbrain to cerebellum in anesthetized cynomolgus monkey after 215 mins postinjection; assay type: ADME, organism-based, Macaca fascicularis; conditions: in vivo
Caudate [24] = assay: Drug uptake in anesthetized cynomolgus monkey brain caudate after 65 mins postinjection; assay type: ADME, organism-based, Macaca fascicularis, Caudate nucleus; conditions: in vivo
[25] = Ratio of drug uptake in putamen to cerebellum in anesthetized cynomolgus monkey after 165 mins postinjection; assay type: ADME, organism-based, Macaca fascicularis; conditions: in vivo, 2.75 h
[26] = Ratio of drug uptake in frontal lobe to cerebellum in anesthetized cynomolgus monkey after 205 mins postinjection; assay type: ADME, organism-based, Macaca fascicularis; conditions: in vivo
[27] = Ratio of drug uptake in pons to cerebellum in anesthetized cynomolgus monkey after 215 mins postinjection; assay type: ADME, organism-based, Macaca fascicularis; conditions: in vivo
Medulla [28] = assay: Drug uptake in anesthetized cynomolgus monkey brain medulla after 165 mins postinjection; assay type: ADME, organism-based, Macaca fascicularis; conditions: in vivo, 2.75 h
Pons [29] = assay: Drug uptake in anesthetized cynomolgus monkey brain pons after 35 mins postinjection; assay type: ADME, organism-based, Macaca fascicularis; conditions: in vivo
[30] = Drug uptake in anesthetized cynomolgus monkey brain occipital lobe after 115 mins postinjection; assay type: ADME, organism-based, Macaca fascicularis; conditions: in vivo
[31] = Ratio of drug uptake in medulla to cerebellum in anesthetized cynomolgus monkey after 9.5 mins postinjection; assay type: ADME, organism-based, Macaca fascicularis; conditions: in vivo
Pons [32] = assay: Drug uptake in anesthetized cynomolgus monkey brain pons after 27.5 mins postinjection; assay type: ADME, organism-based, Macaca fascicularis; conditions: in vivo
[33] = Drug uptake in anesthetized cynomolgus monkey brain frontal lobe after 205 mins postinjection; assay type: ADME, organism-based, Macaca fascicularis; conditions: in vivo
Thalamus [34] = assay: Drug uptake in anesthetized cynomolgus monkey brain thalamus after 185 mins postinjection; assay type: ADME, organism-based, Macaca fascicularis; conditions: in vivo
Pons [35] = assay: Drug uptake in anesthetized cynomolgus monkey brain pons after 55 mins postinjection; assay type: ADME, organism-based, Macaca fascicularis; conditions: in vivo
[36] = Ratio of drug uptake in thalamus to cerebellum in anesthetized cynomolgus monkey after 115 mins postinjection; assay type: ADME, organism-based, Macaca fascicularis; conditions: in vivo
[37] = Ratio of drug uptake in caudate to cerebellum in anesthetized cynomolgus monkey after 185 mins postinjection; assay type: ADME, organism-based, Macaca fascicularis; conditions: in vivo
Medulla [38] = assay: Drug uptake in anesthetized cynomolgus monkey brain medulla after 95 mins postinjection; assay type: ADME, organism-based, Macaca fascicularis; conditions: in vivo
[39] = Ratio of drug uptake in occipital lobe to cerebellum in anesthetized cynomolgus monkey after 95 mins postinjection; assay type: ADME, organism-based, Macaca fascicularis; conditions: in vivo
Putamen [40] = assay: Drug uptake in anesthetized cynomolgus monkey brain putamen after 95 mins postinjection; assay type: ADME, organism-based, Macaca fascicularis; parameters: unit not given here; conditions: in vivo
Midbrain [41] = assay: Drug uptake in anesthetized cynomolgus monkey brain midbrain after 2.5 mins postinjection; assay type: ADME, organism-based, Macaca fascicularis; parameters: unit not given here; conditions: in vivo
[42] = Drug uptake in anesthetized cynomolgus monkey brain frontal lobe after 55 mins postinjection; assay type: ADME, organism-based, Macaca fascicularis; conditions: in vivo
Thalamus [43] = assay: Drug uptake in anesthetized cynomolgus monkey brain thalamus after 45 mins postinjection; assay type: ADME, organism-based, Macaca fascicularis; parameters: unit not given here; conditions: in vivo, 0.75 h
[44] = Drug uptake in anesthetized cynomolgus monkey brain cerebellum after 55 mins postinjection; assay type: ADME, organism-based, Macaca fascicularis; conditions: in vivo
[45] = Drug uptake in anesthetized cynomolgus monkey brain occipital lobe after 175 mins postinjection; assay type: ADME, organism-based, Macaca fascicularis; conditions: in vivo
Putamen [46] = assay: Drug uptake in anesthetized cynomolgus monkey brain putamen after 105 mins postinjection; assay type: ADME, organism-based, Macaca fascicularis; parameters: unit not given here; conditions: in vivo, 1.75 h
Midbrain [47] = assay: Drug uptake in anesthetized cynomolgus monkey brain midbrain after 45 mins postinjection; assay type: ADME, organism-based, Macaca fascicularis; parameters: unit not given here; conditions: in vivo, 0.75 h
Thalamus [48] = assay: Drug uptake in anesthetized cynomolgus monkey brain thalamus after 1.5 mins postinjection; assay type: ADME, organism-based, Macaca fascicularis; conditions: in vivo, 0.025 h
[49] = Ratio of drug uptake in putamen to cerebellum in anesthetized cynomolgus monkey after 45 mins postinjection; assay type: ADME, organism-based, Macaca fascicularis; conditions: in vivo, 0.75 h
[50] = Ratio of drug uptake in frontal lobe to cerebellum in anesthetized cynomolgus monkey after 35 mins postinjection; assay type: ADME, organism-based, Macaca fascicularis; conditions: in vivo
[51] = Ratio of drug uptake in midbrain to cerebellum in awake rhesus monkey after 85 mins postinjection; assay type: ADME, organism-based, Macaca mulatta; conditions: in vivo
[52] = Drug uptake in awake rhesus monkey brain frontal lobe after 25 mins postinjection; assay type: ADME, organism-based, Macaca mulatta; conditions: in vivo
[53] = Drug uptake in awake rhesus monkey brain medulla after 115 mins postinjection; assay type: ADME, organism-based, Macaca mulatta; conditions: in vivo
[54] = Ratio of drug uptake in putamen to cerebellum in awake rhesus monkey after 105 mins postinjection; assay type: ADME, organism-based, Macaca mulatta; conditions: in vivo, 1.75 h
[55] = Drug uptake in awake rhesus monkey brain pons after 25 mins postinjection; assay type: ADME, organism-based, Macaca mulatta; conditions: in vivo

O=C(OCC[18F])C1C2CCC(CC1c1cccc(/C=C\Br)c1)N2 (centres undefined)
Drug uptake (Putamen [1]): 3.01 | Drug uptake (Pons [2]): 4.36 | Ratio [3]: 0.6 | Ratio [4]: 1.2 | Drug uptake (Caudate [5]): 3.52 | Ratio [6]: 0.7 | Drug uptake [7]: 2.69 | Drug uptake [8]: 3.05 | Drug uptake (Pons [9]): 4.56 | Drug uptake (Pons [10]): 3.15 | Drug uptake [11]: 3.43 | Drug uptake (Pons [12]): 4.29 | Drug uptake (Putamen [13]): 4.33 | Drug uptake [14]: 2.56 | Drug uptake [15]: 2.69 | Ratio [16]: 1.7 | Drug uptake [17]: 3.07 | Drug uptake (Pons [18]): 4.16 | Ratio [19]: 1.3 | Drug uptake (Medulla [20]): 4.15 | Drug uptake (Midbrain [21]): 3.41 | Ratio [22]: 1.2 | Ratio [23]: 2.1 | Drug uptake (Caudate [24]): 4.08 | Ratio [25]: 1.8 | Ratio [26]: 1.1 | Ratio [27]: 1.8 | Drug uptake (Medulla [28]): 3.94 | Drug uptake (Pons [29]): 4.22 | Drug uptake [30]: 3.02 | Ratio [31]: 1.2 | Drug uptake (Pons [32]): 4.1 | Drug uptake [33]: 1.98 | Drug uptake (Thalamus [34]): 3.48 | Drug uptake (Pons [35]): 4.36 | Ratio [36]: 1.5 | Ratio [37]: 1.8 | Drug uptake (Medulla [38]): 4.55 | Ratio [39]: 1 | Drug uptake (Putamen [40]): 4.83 | Drug uptake (Midbrain [41]): 0.55 | Drug uptake [42]: 2.8 | Drug uptake (Thalamus [43]): 4.15 | Drug uptake [44]: 3.61 | Drug uptake [45]: 2.42 | Drug uptake (Putamen [46]): 4.82 | Drug uptake (Midbrain [47]): 4.82 | Drug uptake (Thalamus [48]): 0.08 | Ratio [49]: 1.3 | Ratio [50]: 0.7

O=C(OCC[18F])C1C2CCC(CC1c1ccc(/C=C\I)cc1)N2 (centres undefined)
Ratio [51]: 1.6 | Drug uptake (Putamen [1]): 1.89 | Drug uptake (Pons [2]): 3.5 | Drug uptake [52]: 2.16 | Drug uptake (Caudate [5]): 3.05 | Ratio [6]: 0.7 | Drug uptake [8]: 2.14 | Drug uptake (Pons [9]): 3.35 | Drug uptake (Pons [10]): 1.62 | Drug uptake [11]: 2.13 | Drug uptake (Pons [12]): 3.38 | Drug uptake (Putamen [13]): 3.13 | Drug uptake [53]: 2.57 | Drug uptake [17]: 2.24 | Drug uptake (Pons [18]): 3.51 | Ratio [19]: 0.9 | Drug uptake (Medulla [20]): 2.67 | Drug uptake (Midbrain [21]): 2.2 | Ratio [22]: 1.3 | Ratio [23]: 3.9 | Drug uptake (Caudate [24]): 2.87 | Ratio [54]: 2.5 | Drug uptake [55]: 2.29 | Ratio [26]: 1.4 | Ratio [27]: 2.9 | Drug uptake (Medulla [28]): 3.58 | Drug uptake (Pons [29]): 2.74 | Drug uptake (Pons [32]): 2.58 | Drug uptake (Thalamus [34]): 3.8 | Drug uptake (Pons [35]): 2.99 | Drug uptake (Medulla [38]): 3.88 | Drug uptake (Putamen [40]): 4.36 | Drug uptake (Midbrain [41]): 0.4 | Drug uptake (Thalamus [43]): 3.63 | Drug uptake (Putamen [46]): 4.34 | Drug uptake (Midbrain [47]): 3.76 | Drug uptake (Thalamus [48]): 0.11 | Ratio [49]: 1.4 | Ratio [50]: 0.7
